# Measurements: ChEMBL document CHEMBL5346973 (J Med Chem, 2023)
# Where a SMILES comes first, the peptide text is derived from it.
# Target: Nicotinic acetylcholine receptor alpha9/alpha10 (Rattus norvegicus, UniProt P43144+Q9JLB5)
# Assay: Antagonist activity at rat alpha9alpha10 nACh receptor expressed in Xenopus oocyte assessed as inhibition of acetylcholine-induced response at -70 mV holding potential by voltage-clamp based electrophysiological assay
# Format: cell-based
# Sequence of Nicotinic acetylcholine receptor alpha9/alpha10 (P43144 whole entry): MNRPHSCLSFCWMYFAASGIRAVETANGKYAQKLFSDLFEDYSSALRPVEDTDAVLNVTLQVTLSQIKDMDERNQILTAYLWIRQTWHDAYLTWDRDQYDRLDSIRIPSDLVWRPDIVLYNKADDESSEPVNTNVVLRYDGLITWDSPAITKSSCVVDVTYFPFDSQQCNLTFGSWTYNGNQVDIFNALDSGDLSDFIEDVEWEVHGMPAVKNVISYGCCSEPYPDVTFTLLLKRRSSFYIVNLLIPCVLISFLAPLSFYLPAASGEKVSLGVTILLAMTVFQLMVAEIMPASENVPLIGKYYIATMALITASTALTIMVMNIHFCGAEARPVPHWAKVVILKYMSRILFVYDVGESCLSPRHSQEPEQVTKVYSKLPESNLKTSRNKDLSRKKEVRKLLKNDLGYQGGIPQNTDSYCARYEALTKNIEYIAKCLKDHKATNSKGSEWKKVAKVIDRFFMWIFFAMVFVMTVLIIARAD
# Sequence of Nicotinic acetylcholine receptor alpha9/alpha10 (Q9JLB5 whole entry): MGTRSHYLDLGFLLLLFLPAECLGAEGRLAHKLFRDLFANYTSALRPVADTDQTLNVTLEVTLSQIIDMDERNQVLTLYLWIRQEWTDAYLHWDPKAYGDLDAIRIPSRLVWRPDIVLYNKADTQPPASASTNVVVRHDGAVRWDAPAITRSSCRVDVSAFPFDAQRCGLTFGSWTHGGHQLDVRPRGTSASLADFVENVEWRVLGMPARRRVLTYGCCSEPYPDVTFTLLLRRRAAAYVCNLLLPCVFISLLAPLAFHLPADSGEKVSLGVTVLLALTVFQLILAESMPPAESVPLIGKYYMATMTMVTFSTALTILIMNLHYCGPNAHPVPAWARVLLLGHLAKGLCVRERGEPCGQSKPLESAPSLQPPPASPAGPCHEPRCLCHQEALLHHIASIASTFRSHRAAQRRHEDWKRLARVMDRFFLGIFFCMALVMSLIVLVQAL
row,Structure (SMILES),IC50
1,CC[C@H](C)[C@@H]1NC(=O)[C@H](CCCNC(=N)N)NC(=O)[C@H](CCCNC(=N)N)NC(=O)[C@@H](NC(=O)[C@H](Cc2ccc(O)cc2)NC(=O)[C@H](CCCNC(=N)N)NC(=O)[C@H](C)NC(=O)[C@H](C)NC(=O)[C@H](CCCNC(=N)N)NC(=O)[C@H](CC(=O)O)NC(=O)[C@H](Cc2ccc(O)cc2)NC(=O)[C@@H]2CCCN2C(=O)[C@H](CO)NC(=O)[C@H](CCCNC(=N)N)NC(=O)[C@@H]2CSSC[C@H](NC(=O)[C@@H](N)[C@@H](C)O)C(=O)N[C@@H](CCCNC(=N)N)C(=O)N[C@@H](CO)C(=O)N[C@@H](CO)C(=O)NCC(=O)N[C@@H](CCCNC(=N)N)C(=O)N[C@@H](Cc3ccc(O)cc3)C(=O)N2)CSSC[C@@H](C(=O)N[C@H](C(=O)O)C(C)C)NC(=O)[C@H](C)NC(=O)[C@H](CC(=O)O)NC(=O)[C@H]([C@@H](C)O)NC1=O,130 nM
2,CC[C@H](C)[C@@H]1NC(=O)[C@H](CCCNC(=N)N)NC(=O)[C@H](CCCNC(=N)N)NC(=O)[C@@H](NC(=O)[C@H](Cc2ccc(O)cc2)NC(=O)[C@H](CCCNC(=N)N)NC(=O)[C@H](C)NC(=O)[C@H](CCCNC(=N)N)NC(=O)[C@H](C)NC(=O)[C@H](CC(=O)O)NC(=O)[C@H](Cc2ccc(O)cc2)NC(=O)[C@@H]2CCCN2C(=O)[C@H](CO)NC(=O)[C@H](CCCNC(=N)N)NC(=O)[C@@H]2CSSC[C@H](NC(=O)[C@@H](N)[C@@H](C)O)C(=O)N[C@@H](CCCNC(=N)N)C(=O)N[C@@H](CO)C(=O)N[C@@H](CO)C(=O)NCC(=O)N[C@@H](CCCNC(=N)N)C(=O)N[C@@H](Cc3ccc(O)cc3)C(=O)N2)CSSC[C@@H](C(=O)N[C@H](C(=O)O)C(C)C)NC(=O)[C@H](C)NC(=O)[C@H](CC(=O)O)NC(=O)[C@H]([C@@H](C)O)NC1=O,230 nM
3,"CC[C@H](C)[C@@H]1NC(=O)[C@H](CCCNC(=N)N)NC(=O)[C@H](CCCNC(=N)N)NC(=O)[C@@H](NC(=O)[C@H](Cc2ccc(O)cc2)NC(=O)[C@H](CCCNC(=N)N)NC(=O)[C@H](CCCNC(=N)N)NC(=O)[C@H](CCCNC(=N)N)NC(=O)[C@H](CCCNC(=N)N)NC(=O)[C@H](CC(=O)O)NC(=O)[C@H](Cc2ccc(O)cc2)NC(=O)[C@@H]2CCCN2C(=O)[C@H](CO)NC(=O)[C@H](C)NC(=O)[C@@H]2CSSC[C@H](NC(=O)[C@@H](N)[C@@H](C)O)C(=O)N[C@@H](CCCNC(=N)N)C(=O)N[C@@H](CO)C(=O)N[C@@H](CO)C(=O)NCC(=O)N[C@@H](C)C(=O)N[C@@H](Cc3ccc(O)cc3)C(=O)N2)CSSC[C@@H](C(=O)N[C@H](C(=O)O)C(C)C)NC(=O)[C@H](C)NC(=O)[C@H](CC(=O)O)NC(=O)[C@H]([C@@H](C)O)NC1=O (HELM PEPTIDE1{T.C.R.S.S.G.A.Y.C.A.S.P.Y.D.R.R.R.R.Y.C.R.R.I.T.D.A.C.V}$PEPTIDE1,PEPTIDE1,2:R3-9:R3|PEPTIDE1,PEPTIDE1,20:R3-27:R3$$$V2.0)",440 nM
4,CC(C)C[C@H](NC(=O)[C@H](CCCCN)NC(=O)[C@H](CC(N)=O)NC(=O)[C@@H]1CCCN1C(=O)[C@H](CCC(N)=O)NC(=O)[C@H](C)NC(=O)CNC(=O)[C@H](CO)NC(=O)[C@H](CCCCN)NC(=O)[C@H](CCC(=O)O)NC(=O)[C@H](CC(C)C)NC(=O)[C@H](CS)NC(=O)[C@@H](CCCNC(=N)N)NC(=O)[C@@H](N)C(C)C)C(=O)N[C@@H](Cc1ccccc1)C(=O)N[C@@H](CCCNC(=N)N)C(=O)N1CCC[C@H]1C(=O)N1CCC[C@H]1C(=O)N[C@@H](CS)C(=O)N[C@@H](CS)C(=O)N[C@@H](CCC(N)=O)C(=O)N[C@@H](CCCCN)C(=O)NCC(=O)N1CCC[C@H]1C(=O)N[C@@H](CO)C(=O)N[C@@H](Cc1ccccc1)C(=O)N[C@@H](C)C(=O)N[C@@H](CCCNC(=N)N)C(=O)N[C@@H](Cc1cnc[nH]1)C(=O)N[C@@H](CO)C(=O)N[C@@H](CCCNC(=N)N)C(=O)N[C@@H](CS)C(=O)N[C@H](C(=O)N[C@@H](Cc1ccc(O)cc1)C(=O)N[C@@H](Cc1ccc(O)cc1)C(=O)N[C@H](C(=O)N[C@@H](CCC(N)=O)C(=O)N[C@@H](CO)C(=O)N[C@@H](CCCNC(=N)N)C(=O)N[C@@H](CCC(=O)O)C(=O)O)[C@@H](C)O)C(C)C,1200 nM
5,CC[C@H](C)[C@@H]1NC(=O)[C@H](CCCNC(=N)N)NC(=O)[C@H](CCCNC(=N)N)NC(=O)[C@@H](NC(=O)[C@H](Cc2ccc(O)cc2)NC(=O)[C@H](C)NC(=O)[C@H](CCCNC(=N)N)NC(=O)[C@H](CCCNC(=N)N)NC(=O)[C@H](C)NC(=O)[C@H](CC(=O)O)NC(=O)[C@H](Cc2ccc(O)cc2)NC(=O)[C@@H]2CCCN2C(=O)[C@H](CO)NC(=O)[C@H](CCCNC(=N)N)NC(=O)[C@@H]2CSSC[C@H](NC(=O)[C@@H](N)[C@@H](C)O)C(=O)N[C@@H](CCCNC(=N)N)C(=O)N[C@@H](CO)C(=O)N[C@@H](CO)C(=O)NCC(=O)N[C@@H](CCCNC(=N)N)C(=O)N[C@@H](Cc3ccc(O)cc3)C(=O)N2)CSSC[C@@H](C(=O)N[C@H](C(=O)O)C(C)C)NC(=O)[C@H](C)NC(=O)[C@H](CC(=O)O)NC(=O)[C@H]([C@@H](C)O)NC1=O,350 nM
6,"CC[C@H](C)[C@@H]1NC(=O)[C@H](CCCNC(=N)N)NC(=O)[C@H](CCCNC(=N)N)NC(=O)[C@@H](NC(=O)[C@H](Cc2ccc(O)cc2)NC(=O)[C@H](CCCNC(=N)N)NC(=O)[C@H](CCCNC(=N)N)NC(=O)[C@H](CCCNC(=N)N)NC(=O)[C@H](CCCNC(=N)N)NC(=O)[C@H](CC(=O)O)NC(=O)[C@H](Cc2ccc(O)cc2)NC(=O)[C@@H]2CCCN2C(=O)[C@H](CO)NC(=O)[C@H](C)NC(=O)[C@@H]2CSSC[C@H](NC(=O)[C@@H](N)[C@@H](C)O)C(=O)N[C@@H](C)C(=O)N[C@@H](CO)C(=O)N[C@@H](CO)C(=O)NCC(=O)N[C@@H](CCCNC(=N)N)C(=O)N[C@@H](Cc3ccc(O)cc3)C(=O)N2)CSSC[C@@H](C(=O)N[C@H](C(=O)O)C(C)C)NC(=O)[C@H](C)NC(=O)[C@H](CC(=O)O)NC(=O)[C@H]([C@@H](C)O)NC1=O (HELM PEPTIDE1{T.C.A.S.S.G.R.Y.C.A.S.P.Y.D.R.R.R.R.Y.C.R.R.I.T.D.A.C.V}$PEPTIDE1,PEPTIDE1,2:R3-9:R3|PEPTIDE1,PEPTIDE1,20:R3-27:R3$$$V2.0)",590 nM
7,CC[C@H](C)[C@@H]1NC(=O)[C@H](CCCNC(=N)N)NC(=O)[C@H](CCCNC(=N)N)NC(=O)[C@@H](NC(=O)[C@H](Cc2ccc(O)cc2)NC(=O)[C@H](C)NC(=O)[C@H](C)NC(=O)[C@H](CCCNC(=N)N)NC(=O)[C@H](CCCNC(=N)N)NC(=O)[C@H](CC(=O)O)NC(=O)[C@H](Cc2ccc(O)cc2)NC(=O)[C@@H]2CCCN2C(=O)[C@H](CO)NC(=O)[C@H](CCCNC(=N)N)NC(=O)[C@@H]2CSSC[C@H](NC(=O)[C@@H](N)[C@@H](C)O)C(=O)N[C@@H](CCCNC(=N)N)C(=O)N[C@@H](CO)C(=O)N[C@@H](CO)C(=O)NCC(=O)N[C@@H](CCCNC(=N)N)C(=O)N[C@@H](Cc3ccc(O)cc3)C(=O)N2)CSSC[C@@H](C(=O)N[C@H](C(=O)O)C(C)C)NC(=O)[C@H](C)NC(=O)[C@H](CC(=O)O)NC(=O)[C@H]([C@@H](C)O)NC1=O,230 nM
8,"CC[C@H](C)[C@@H]1NC(=O)[C@H](CCCNC(=N)N)NC(=O)[C@H](CCCNC(=N)N)NC(=O)[C@@H](NC(=O)[C@H](Cc2ccc(O)cc2)NC(=O)[C@H](CCCNC(=N)N)NC(=O)[C@H](CCCNC(=N)N)NC(=O)[C@H](CCCNC(=N)N)NC(=O)[C@H](CCCNC(=N)N)NC(=O)[C@H](CC(=O)O)NC(=O)[C@H](Cc2ccc(O)cc2)NC(=O)[C@@H]2CCCN2C(=O)[C@H](CO)NC(=O)[C@H](CCCNC(=N)N)NC(=O)[C@@H]2CSSC[C@H](NC(=O)[C@@H](N)[C@@H](C)O)C(=O)N[C@@H](C)C(=O)N[C@@H](CO)C(=O)N[C@@H](CO)C(=O)NCC(=O)N[C@@H](C)C(=O)N[C@@H](Cc3ccc(O)cc3)C(=O)N2)CSSC[C@@H](C(=O)N[C@H](C(=O)O)C(C)C)NC(=O)[C@H](C)NC(=O)[C@H](CC(=O)O)NC(=O)[C@H]([C@@H](C)O)NC1=O (HELM PEPTIDE1{T.C.A.S.S.G.A.Y.C.R.S.P.Y.D.R.R.R.R.Y.C.R.R.I.T.D.A.C.V}$PEPTIDE1,PEPTIDE1,2:R3-9:R3|PEPTIDE1,PEPTIDE1,20:R3-27:R3$$$V2.0)",370 nM
9,CC[C@H](C)[C@@H]1NC(=O)[C@H](CCCNC(=N)N)NC(=O)[C@H](CCCNC(=N)N)NC(=O)[C@@H](NC(=O)[C@H](Cc2ccc(O)cc2)NC(=O)[C@H](C)NC(=O)[C@H](CCCNC(=N)N)NC(=O)[C@H](C)NC(=O)[C@H](CCCNC(=N)N)NC(=O)[C@H](CC(=O)O)NC(=O)[C@H](Cc2ccc(O)cc2)NC(=O)[C@@H]2CCCN2C(=O)[C@H](CO)NC(=O)[C@H](CCCNC(=N)N)NC(=O)[C@@H]2CSSC[C@H](NC(=O)[C@@H](N)[C@@H](C)O)C(=O)N[C@@H](CCCNC(=N)N)C(=O)N[C@@H](CO)C(=O)N[C@@H](CO)C(=O)NCC(=O)N[C@@H](CCCNC(=N)N)C(=O)N[C@@H](Cc3ccc(O)cc3)C(=O)N2)CSSC[C@@H](C(=O)N[C@H](C(=O)O)C(C)C)NC(=O)[C@H](C)NC(=O)[C@H](CC(=O)O)NC(=O)[C@H]([C@@H](C)O)NC1=O,410 nM
10,CC[C@H](C)[C@@H]1NC(=O)[C@H](C)NC(=O)[C@H](C)NC(=O)[C@@H](NC(=O)[C@H](Cc2ccc(O)cc2)NC(=O)[C@H](CCCNC(=N)N)NC(=O)[C@H](CCCNC(=N)N)NC(=O)[C@H](CCCNC(=N)N)NC(=O)[C@H](CCCNC(=N)N)NC(=O)[C@H](CC(=O)O)NC(=O)[C@H](Cc2ccc(O)cc2)NC(=O)[C@@H]2CCCN2C(=O)[C@H](CO)NC(=O)[C@H](CCCNC(=N)N)NC(=O)[C@@H]2CSSC[C@H](NC(=O)[C@@H](N)[C@@H](C)O)C(=O)N[C@@H](CCCNC(=N)N)C(=O)N[C@@H](CO)C(=O)N[C@@H](CO)C(=O)NCC(=O)N[C@@H](CCCNC(=N)N)C(=O)N[C@@H](Cc3ccc(O)cc3)C(=O)N2)CSSC[C@@H](C(=O)N[C@H](C(=O)O)C(C)C)NC(=O)[C@H](C)NC(=O)[C@H](CC(=O)O)NC(=O)[C@H]([C@@H](C)O)NC1=O,180 nM
11,CC[C@H](C)[C@@H]1NC(=O)[C@H](CCCNC(=N)N)NC(=O)[C@H](CCCNC(=N)N)NC(=O)[C@@H](NC(=O)[C@H](Cc2ccc(O)cc2)NC(=O)[C@H](CCCNC(=N)N)NC(=O)[C@H](CCCNC(=N)N)NC(=O)[C@H](C)NC(=O)[C@H](C)NC(=O)[C@H](CC(=O)O)NC(=O)[C@H](Cc2ccc(O)cc2)NC(=O)[C@@H]2CCCN2C(=O)[C@H](CO)NC(=O)[C@H](CCCNC(=N)N)NC(=O)[C@@H]2CSSC[C@H](NC(=O)[C@@H](N)[C@@H](C)O)C(=O)N[C@@H](CCCNC(=N)N)C(=O)N[C@@H](CO)C(=O)N[C@@H](CO)C(=O)NCC(=O)N[C@@H](CCCNC(=N)N)C(=O)N[C@@H](Cc3ccc(O)cc3)C(=O)N2)CSSC[C@@H](C(=O)N[C@H](C(=O)O)C(C)C)NC(=O)[C@H](C)NC(=O)[C@H](CC(=O)O)NC(=O)[C@H]([C@@H](C)O)NC1=O,260 nM
